# Reference: US20250002435A1, “ARYLATED FENCHONE DERIVATIVES, COMPOSITIONS COMPRISING THEM, PROCESSES FOR THEIR PREPARATION AND USES THEREOF” (priority 2021, published 2025)
# Key:
# [1] = tested on: medial meniscal tear (MMT) post-traumatic OA; test: rat medial meniscal tear (MMT) model, body weight and dynamic weight bearing; assay type: in vivo
# Method: Initially, the required amount of HU308 dissolved in ethanol followed by addition of […] with vigorous mechanical agitation to form viscous micelle solution. Finally, the micelle solution was diluted in ice cold saline for injection or culture assays. Vehicle solution consisted of ethanol, cremophor and saline at 1:1:18 ratio. For intra-articular (IA) dosing 50 μL was injected into the tibiofemoral joint, at two doses; 8 and 24 μg/mL. Vehicle control contained 1:1:18 ethanol/Cremophor/saline, while positive control was of IA administered 60 μg/mL FGF-18 (R&D Systems, catalogue No. 8988-F18-050, lot No. BVE0521071) for IA dosing at 50 μL/knee.
# (§1) The rat OA model employed was surgically-induced medial meniscal tear (MMT), wherein rats were anesthetized with Isoflurane (VetOne, catalogue No. 502017), and the right knee area was prepared for surgery. A skin incision was made over the medial aspect of the knee, and the medial collateral ligament was exposed by blunt dissection and then transected. The medial meniscus was cut through the full thickness to simulate a complete tear. Skin and subcutis were closed with 4-0 Coated Vicryl (polyglactin 910) Violet Braided Suture (Ethicon, catalogue No. J399H), and slight hand pressure was applied to the wound for approximately 3 minutes for hemostasis. Subcutaneous (SC) dose of buprenorphine (0.05 mg/kg) administered after the animal awakened post-surgery. Rats were weighed daily on study days −1 through 7 and again on days 14, 21, and 28 (prior to necropsy). […] The animals were euthanized for necropsy 28 days post-surgery, following Isoflurane anesthesia, and bled to exsanguination followed by bilateral pneumothorax.
# [2] = tested on: medial meniscal tear (MMT) post-traumatic OA; test: rat MMT model, histopathology of medial tibial joint 28 days post MMT; assay type: in vivo; details: for osteophyte measurements and scores: vs vehicle
# Method: as §1
# Right knees were collected from all animals and trimmed of muscle and patellae. The trimmed joints were placed in 10% neutral buffered formalin (NBF) for histologic processing and evaluation. Samples were fixed for 3 days in 4% paraformaldehyde and decalcified for 21 days in 10% EDTA, pH=7.5. Then following dehydration in a graded series of ethanol washes, joints were embedded in paraffin and sectioned to 7 μm slices, following trimming off 1 mm until the tibiofemoral compartments are fully observed. Sections were obtained from each knee and stained with toluidine blue (0.04% in 0.2 M acetate buffer, Ph=4.0), based on a modified version of the methods used in Schmitz, et al. (2010), (11). Histopathology was carried out using an ocular micrometer. The following structural histological characterization was carried out:
# Regional differences across the tibial plateau were taken into consideration by dividing each section into three zones: (1) outside, (2) middle, and (3) inside. In the surgical OA model, the outside (zone-1) and middle (zone-2) thirds are most severely affected, and milder changes are present on the inside third (zone 3). When zones were scored individually, scores were assigned based on percent area of the zone affected. General cartilage degeneration including chondrocyte death/loss, proteoglycan (PG) loss, and collagen loss or fibrillation. Zones were scored individually (0-5; 5 representing sever damage; SD3), and a sum of all three zones was calculated (termed “Total Joint scores”).
# The zone related cartilage depth is calculated from the projected articular surface tot the tidemark. Reduced ratios embody less detected cartilage width vs projected cartilage with area, per zone.
# Osteophyte thickness (tidemark to furthest point extending toward synovium) was measured and scored according to a range from 0-5, as in SD4.
# Damage to the calcified cartilage layer and subchondral bone was scored using the criteria in SD5. Generally damage was considered as invagination of deep zone cartilage into the subchondral bone layer.
# […] Descriptions of other changes (typically fibrosis, or acute inflammation/neutrophil infiltration extending into the lateral compartment usually associated with IA treatments) were also provided, if present.
smiles,measurement,setting,value
"CCCCCCC(C)(C)c1cc(OC)c([C@]2(O)C3(C)CCC(C3)C2(C)C)c(OC)c1 (stereo partly shown) [Compound 1d, 2-(2,6′-dimethoxy-4′-(2″-methyloctan-2″-yl)phenyl)-1,3,3-trimethyl-bicyclo[2.2.1]heptan-2-ol]","dynamic weight bearing, left to right load bearing",[1]; 1D high dose 24 μg/mL IA,statistically insignificant levels vs sham and vehicle
same,change in rat weight from 4 days to 28 days post MMT,"[1]; 1D high dose 24 μg/mL IA, vs Vehicle and FGF18 groups",slight but significant increase
same,"dynamic weight bearing, left to right load bearing",[1]; 1D low dose 8 μg/mL IA,increased left to right lad bearing vs sham
same,mean zonal depth ratios,[2]; 1D high dose 24 μg/mL IA,reduced depth ratios
same,zone 3 cartilage degeneration score,[2]; 1D high dose 24 μg/mL IA,less degeneration scores which were statistically significant
same,total zonal cartilage degeneration scores,"[2]; 1D high dose 24 μg/mL IA, vs 1D low dose and Vehicle",significantly reduced degenerative scores
same,osteophyte measurements and scores,[2]; 1D high dose 24 μg/mL IA,didn't display any differences
same,synovitis scores,[2]; 1D low dose 8 μg/mL IA,higher
same,zone 3 cartilage degeneration score,[2]; 1D low dose 8 μg/mL IA,less degeneration scores which were statistically significant
same,osteophyte measurements and scores,[2]; 1D low dose 8 μg/mL IA,didn't display any differences
